Experiments:
amylase = test: Amylase test in vitro (amylase inhibitor unit); format: biochemical; settings: 1 AIU = amount of inhibitor for about 50% inhibition; starch substrate, pH 6.9, 35° C.
Procedure: The amylase activity of the novel amino sugar compound of the present invention was measured by the following method.
Amylase inhibitor unit (1 AIU) is defined as the amount of inhibitor required to control the amylase unit by about 50%. The amylase unit (AU) is the value of enzyme to divide 1μ equivalent of glucoside bond in starch for 1 minute under the following test conditions. The μ equivalent of this divided bond is determined as reduced μ equivalent of sugar formed by Kurie's method which uses dinitrosalicylic acid. Standard curve using maltose is given as μ equivalent of maltose equivalent. A testing solution (0-20 μl) in 0.4 ml of a solution (pH 6.9) containing 0.001 mol of CaCl2, 0-10 μg of the inhibitor and 0.02 mol of sodium glycerophosphate is added to 0.1 ml of an amylase solution (20 to 22 AU/ml). This mixture is equilibrated in a water bath of 35° C. for about 10-20 minutes. Then, this is cultured at 35° C. for 5 minutes together with 0.5 ml of a 1% starch solution (soluble starch No. 1,252 from Marck, Darmstadt) preheated to 35° C. and thereafter 1 ml of dinitrosalicylic acid reagent (P. Bernfeld, Colowick-Kaplan, Meth. Enzymol., 1, 149) is added thereto. For developing color, the batch is heated in a boiling water bath for 5 minutes and then cooled and 10 ml of distilled water is added thereto. Absorbance of 540 nm is measured in comparison with blanks prepared in the same manner without using amylase. For evaluation, amylase activity which is still effective after addition of inhibitor is read from previously recorded amylase standard curve and inhibiting rate (%) of the amylase used is calculated from said amylase activity. The inhibiting rate is plotted as function of the quotient: [formula] Inhibiting point of 50% is read from this curve and is converted to AIU/mg of the inhibitor.

Solubility in solvents = format: physicochemical
[1] = acetone, ethyl acetate, chloroform
[2] = water, methanol, dimethylformamide, dimethylsulfoxide, hot ethanol

| Amylase inhibitor unit (amylase) | Solubility in solvents (Solubility in solvents; [1]) | Solubility in solvents (Solubility in solvents; [2]) | SMILES |
| --- | --- | --- | --- |
| 3.4×10^2 AIU/mg | insoluble | soluble | OCC1=CC(NC2C(CO)OC(O[C@H]3[C@H](O)[C@@H](O)C(O)O[C@@H]3CO)C(O)C2O)C(O)C(O)C1O (some centres unmarked) [[I] (wherein n=1 and m=0)] |
| 3.6×10^2 AIU/mg | insoluble | soluble | OCC1=CC(NC2C(CO)OC(O[C@H]3[C@H](O)[C@@H](O)C(O[C@H]4[C@H](O)[C@@H](O)C(O)O[C@@H]4CO)O[C@@H]3CO)C(O)C2O)C(O)C(O)C1O (some centres unmarked) [[I] (wherein n=2 and m=0)] |
| 1.2×10^3 AIU/mg | – | – | OCC1=CC(NC2C(CO)OC(O[C@H]3[C@H](O)[C@@H](O)C(O[C@H]4[C@H](O)[C@@H](O)C(O)O[C@@H]4CO)O[C@@H]3CO)C(O)C2O)C(O)C(O)C1OC1O[C@H](CO)[C@@H](O)[C@H](O)[C@H]1O (some centres unmarked) [[I] (wherein n=2, m=1)] |
| 1.4×10^3 AIU/mg | – | – | OCC1=CC(NC2C(CO)OC(O[C@H]3[C@H](O)[C@@H](O)C(O[C@H]4[C@H](O)[C@@H](O)C(O[C@H]5[C@H](O)[C@@H](O)C(O)O[C@@H]5CO)O[C@@H]4CO)O[C@@H]3CO)C(O)C2O)C(O)C(O)C1O (some centres unmarked) [[I] (wherein n=3, m=0)] |

— US4254256A, “Amino sugar compound” (Toyo Jozo company, Ltd., priority 1977, dated 1981)
